Laboratory results as given in publication PMC10016038, “Enhanced Endosomal Signaling and Desensitization of GLP-1R vs GIPR in Pancreatic Beta Cells” (Endocrinology, 2023).
“Also recorded” adds a separate entry of the source.

Tests used:
SNAP-GIPR [1] = experiment: Nb37 bystander NanoBiT, plasma membrane (CAAX), GIPR; format: cell-based, human; conditions: 30-minute AUC, n = 4
Source text: (§1) The Nb37 assay constructs were kindly provided by Prof. Asuka Inoue, Tohoku University, Japan. Nb37 (gene synthesized by GenScript with codon optimization) was C-terminally fused to SmBiT with a 15 amino acid flexible linker ([…]), and the resulting construct referred to as Nb37-SmBiT. The C-terminal KRAS CAAX motif ([…]) was N-terminally fused with LgBiT (LgBiT-CAAX). The Endofin FYVE domain (amino acid region Gln739-Lys806) was C-terminally fused with LgBiT (Endofin-LgBiT). Gαs (human, short isoform), Gβ1 (human), Gγ2 (human), and RIC8B (human, isoform 2) plasmids were inserted into pcDNA3.1 or pCAGGS expression plasmid vectors. INS-1 832/3 GLP-1R KO or GIPR KO cells were seeded in 6-well plates and co-transfected with 0.1 μg SNAP-GLP-1R or SNAP-GIPR, 0.5 μg Gαs, Gβ1, and Gγ2, 0.1 μg RIC8B, 0.1 μg CAAX-LgBiT or 0.5 μg Endofin-LgBiT with 0.1 μg or 0.5 μg Nb37-SmBiT, respectively, with 0.8 µg pcDNA3.1 added to the former to equalize DNA content.
(§2) All NanoBiT and NanoBRET readings were obtained in a Flexstation 3 plate reader. […] Readings were normalized to well baseline and then to average vehicle-induced signal to establish the agonist-induced effect. AUCs from response curves were calculated for each agonist concentration and fitted to four-parameter curves using Prism 9 (GraphPad). […]

SNAP-tagged human GIPR = experiment: High-content microscopy internalization, SNAP-GIPR; format: cell-based; conditions: BG-S-S-649, 30 min, 37 °C, respective endogenous agonists, n = 5
Description: The assay was performed as previously described ([21]). The INS-1 832/3 SNAP-GLP-1R or SNAP-GIPR cells were seeded into poly-D-lysine-coated, black 96-well plates. On the day of the assay, labeling was performed with BG-S-S-649 (1 µM), a surface-labeling SNAP-tag probe that can be released on application of reducing agents such as Mesna. After washing, treatments were applied for 30 minutes at 37 °C in complete medium. Ligand was removed and cells washed with cold HBSS and placed on ice for subsequent steps. Mesna (100 mM in alkaline TNE buffer, pH 8.6) or alkaline TNE buffer without Mesna was applied for 5 minutes, and then washed with HBSS. Cells were imaged by widefield microscopy, with both epifluorescence and transmitted phase contrast images acquired. On imaging completion, HBSS was removed and replaced with fresh complete medium, and receptor was allowed to recycle for 60 minutes at 37 °C, followed by a second Mesna application to remove any receptor that had recycled to the plasma membrane, with the plate re-imaged as above. Internalized receptor at each time point was determined from cell-containing regions as determined from the phase contrast image using […] ([22]) and used to determine internalization and recycling parameters as previously described ([21]). […]

GIPR-NanoLuc = experiment: Mini-Gs-Venus recruitment NanoBRET, GIPR; format: cell-based; conditions: 100 nM, n = 4
Description: Mini-Gs-Venus was a gift from Prof. Nevin Lambert, Augusta University, USA. INS-1 832/3 GLP-1R KO or GIPR KO cells were seeded in 12-well plates and co-transfected with 0.5 µg mini-Gs-Venus and either 0.5 µg GLP-1R- or GIPR-NanoLuc, respectively.
(§3) All NanoBiT and NanoBRET readings were obtained in a Flexstation 3 plate reader. Briefly, 24 hours after transfection, cells were detached, resuspended in NanoGlo Live Cell Reagent (Promega) with furimazine (1:20 dilution) and seeded into white 96-well half-area plates. […] Readings were normalized to well baseline and then to average vehicle-induced signal to establish the agonist-induced effect. AUCs from response curves were calculated for each agonist concentration and fitted to four-parameter curves using Prism 9 (GraphPad).
Figure 5. Beta cell GLP-1R vs GIPR G protein subtype and β-arrestin 2 recruitment characteristics. (A) Kinetics of Gαs, Gαq, Gαi, and β-arrestin 2 recruitment to the GLP-1R assessed by NanoBiT complementation assay in INS-1 832/3 GLP-1R KO cells transiently expressing GLP-1R-SmBiT and the corresponding mini-G protein subtype or β-arrestin 2. […] (B) Kinetics of Gαs, Gαq, Gαi, and β-arrestin 2 recruitment to the GIPR assessed by NanoBiT complementation assay in INS-1 832/3 GIPR KO cells transiently expressing GIPR-SmBiT and the corresponding mini-G protein subtype or β-arrestin 2. […]

[2] = system: cAMP response in INS-1 832/3 cells; experiment: cAMP HTRF assay; format: cell-based, rat; conditions: 100 nM, log(Emax/EC50) in Fig. 7A, n = 5
Source text: Results were expressed as basal fold increase responses and fitted to 3-parameter curves using Prism 9 (GraphPad).
Figure 7. Functional analysis of GLP-1R vs GIPR signaling in beta cells. […] Data are mean ± SEM, compared by paired t tests; *P < .05; ns, nonsignificant.

SNAP-tagged human GLP-1R = SNAP-tagged human GLP-1R (Homo sapiens, UniProt P43220); experiment: TR-FRET receptor clustering, SNAP-GLP-1R; format: cell-based; conditions: 100 nM, 37 °C, n = 4
Sequence of SNAP-tagged human GLP-1R (P43220 24-463): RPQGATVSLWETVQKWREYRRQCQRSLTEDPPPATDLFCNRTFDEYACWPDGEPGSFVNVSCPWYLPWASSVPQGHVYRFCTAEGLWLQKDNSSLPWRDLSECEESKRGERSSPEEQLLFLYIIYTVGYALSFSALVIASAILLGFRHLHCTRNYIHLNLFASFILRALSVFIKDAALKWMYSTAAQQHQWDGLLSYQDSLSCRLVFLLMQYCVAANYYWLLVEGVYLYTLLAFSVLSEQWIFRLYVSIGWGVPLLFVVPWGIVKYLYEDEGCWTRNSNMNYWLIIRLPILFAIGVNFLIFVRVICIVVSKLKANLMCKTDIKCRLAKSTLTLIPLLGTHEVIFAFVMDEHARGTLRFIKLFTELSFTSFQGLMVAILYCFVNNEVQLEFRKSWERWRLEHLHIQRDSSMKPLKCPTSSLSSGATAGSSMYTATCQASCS

SNAP-GIPR [3] = experiment: Nb37 bystander NanoBiT, endosome (Endofin), GIPR; format: cell-based, human; conditions: Endofin-LgBiT, n = 4
Source text: as §1, §2

GLP-1R-NanoLuc = experiment: Rab5-Venus bystander NanoBRET (early endosome), GLP-1R; format: cell-based; conditions: n = 5
Source text: GLP-1R-NanoLuc was generated in house by polymerase chain reaction (PCR) cloning of the NanoLuciferase sequence from pcDNA3.1-ccdB-NanoLuc (a gift from Prof. Mikko Taipale; Addgene plasmid # 87067) onto the C-terminus end of the SNAP-GLP-1R vector (CisBio), followed by site-directed mutagenesis of the GLP-1R stop codon. GIPR-NanoLuc was subsequently cloned in house by exchanging the GLP-1R for the GIPR in the GLP-1R-NanoLuc construct. KRAS- and Rab5-Venus plasmids were a gift from Prof. Kevin Pfleger, University of Western Australia. The INS-1 832/3 GLP-1R KO and GIPR KO cells were seeded in 12-well plates and co-transfected with 0.2 µg KRAS-Venus and 0.1 µg GLP-1R- or GIPR-NanoLuc, respectively, or 0.5 µg Rab5-Venus and 0.1 µg GLP-1R- or GIPR-NanoLuc, respectively.
as §3
Figure 2. Endosomal vs plasma membrane localization of GLP-1R compared with GIPR in beta cells. […]

Substance: GIP(1-42)
- Recruitment of Nb37 to active GIPRs vs GLP-1Rs within the plasma membrane (SNAP-GIPR [1]): no significant differences
- Internalization of GIPR compared with GLP-1R (SNAP-tagged human GIPR): significantly less internalization
- Gαs recruitment to the GIPR compared to the GLP-1R (GIPR-NanoLuc): significantly reduced Gαs recruitment
- cAMP response, GIP compared with GLP-1, INS-1 832/3 [2]: near-significant increase; also recorded: tendency toward increased
- GLP-1R clustering (SNAP-tagged human GLP-1R): not detectable
- GIPR endosomal activity, Emax response vs GLP-1R (SNAP-GIPR [3]): profoundly reduced
- GIPR potency for endosomal signaling vs GLP-1R (SNAP-GIPR [3]): increased potency

Substance: GLP-1(7-36)NH2
- Agonist-mediated redistribution of GLP-1R to Rab5-positive early endosomes (GLP-1R-NanoLuc): clearly detectable
